The source of these data is patent US10995091B2 (Proximagen, LLC, priority 2010, dated 2021).

pKi: −log10 of the molar value. Where a name gives a salt, the structure may show the parent alone.

The target in the test is T1, Human CXCR4 transfected HEK293 cells (Homo sapiens, UniProt P61073).
T1 construct: expressed in transfected cells; host or cells: HEK293
T1 sequence (P61073 whole entry): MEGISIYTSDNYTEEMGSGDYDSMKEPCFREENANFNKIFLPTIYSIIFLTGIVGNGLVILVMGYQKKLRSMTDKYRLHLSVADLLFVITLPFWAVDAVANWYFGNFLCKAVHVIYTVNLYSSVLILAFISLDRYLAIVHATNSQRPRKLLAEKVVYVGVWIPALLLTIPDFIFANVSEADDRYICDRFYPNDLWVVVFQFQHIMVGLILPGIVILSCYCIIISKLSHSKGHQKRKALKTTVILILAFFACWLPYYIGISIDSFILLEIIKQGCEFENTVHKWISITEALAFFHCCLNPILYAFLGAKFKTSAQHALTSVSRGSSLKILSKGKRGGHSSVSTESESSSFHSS
The experiment in a line: CXCR4 functional calcium assay (calcium flux FLIPR, antagonism of SDF1 response). To be noted: CXCR4 functional activity, antagonism of SDF1 (EC50 concentration), read-out: CXCR4 fKi. The class given is cell-based. The method in brief: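 HEK293 cells stably transfected with human CXCR4 were loaded with 2 μM Fluo-4 AM in HBSS containing 2.5 mM probenecid, 0.1% BSA and 10 mM HEPES at pH 7.4 and 37° C. Compound was added first, then SDF1 at its EC50 concentration, and intracellular calcium fluorescence was followed on a FLIPR. Antagonist dose-response curves were fitted.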
On the technique in general: Calcium flux is commonly read through the fluorescence of an indicator in the cells.
Take `C[C@H](N1CCC(N2CCCN(c3cccc(C(=O)NCC4CC4)n3)CC2)CC1)C(F)(F)F` [Example 69, N-(Cyclopropylmethyl)-6-(4-{1-[(2S)-1,1,1-trifluoropropan-2-yl]piperidin-4-yl}-1,4-diazepan-1-yl)pyridine-2-carboxamide]: the pKi was 6.30 to 7.00.

Take `[2H]C1([2H])CCN(c2cccc(C(=O)Nc3ccncc3)n2)CCN1C1CCN([C@@H](C)CC)CC1` [Example 189, 6-(4-{1-[(2S)-Butan-2-yl]piperidin-4-yl}-5,5-dihydrogenio-1,4-diazepan-1-yl)-N-(pyridin-4-yl)pyridine-2-carboxamide]: the pKi was greater than 7.70.

As for `O=C(NCC1CC1)c1cccc(N2CCCN(C3CCN(C4CC4)CC3)CC2)n1` [Example 62, N-(Cyclopropylmethyl)-6-[4-(1-cyclopropylpiperidin-4-yl)-1,4-diazepan-1-yl]pyridine-2-carboxamide], the pKi is 6.00 to 6.30.

Regarding `CCCCc1nc(-c2cccc(N3CCCN(C4CCN(C(C)C)CC4)CC3)n2)no1` [Example 157, 1-[6-(5-Butyl-1,2,4-oxadiazol-3-yl)pyridine-2-yl]-4-[1-(propan-2-yl)piperidin-4-yl]-1,4-diazepane], the pKi is 6.30 to 7.00.

Turning to `CC(C)N1CCC(N2CCCC(Nc3cccc(C(=O)Nc4ccncc4)n3)C2)CC1` (stereo not drawn) [Example 222, 6-({1-[1-(Propan-2-yl)piperidin-4-yl]piperidin-3-yl}amino)-N-(pyridin-4-yl)pyridine-2-carboxamide], the pKi is 6.00 to 6.30.

Consider `CC(C)(N1CCC(N2CCCN(c3cccc(C(=O)NCc4cccnc4)n3)CC2)CC1)C(F)(F)F` [Example 91, N-(Pyridin-3-ylmethyl)-6-{4-[1-(1,1,1-trifluoro-2-methylpropan-2-yl)piperidin-4-yl]-1,4-diazepan-1-yl}pyridine-2-carboxamide], for which the pKi was 6.30 to 7.00.

`CC(C)N1CCC(N2CCCN(c3cccc(C(=O)Nc4ccccc4)n3)CC2)CC1` [Example 23, N-Phenyl-6-{4-[1-(propan-2-yl)piperidin-4-yl]-1,4-diazepan-1-yl}pyridine-2-carboxamide]: the pKi was greater than 7.70.

Turning to `O=C(Nc1ccncc1)c1cccc(N2CCCN(C3CCN(C4CCCC4)CC3)CC2)n1` [Example 83, 6-[4-(1-Cyclopentylpiperidin-4-yl)-1,4-diazepan-1-yl]-N-(pyridine-4-yl)pyridine-2-carboxamide], the pKi was greater than 7.70.

As for `CC(C)N1CCCC(N2CCN(c3cccc(C(=O)Nc4ccncc4)n3)CC2)CC1` (stereo not drawn) [Example 242, 6-{4-[1-(Propan-2-yl)azepan-4-yl]piperazin-1-yl}-N-(pyridin-4-yl)pyridine-2-carboxamide], the pKi was 6.30 to 7.00.

With `CC(CC(F)(F)F)N1CCC(N2CCCN(c3cccc(C(=O)NCc4cccnc4)n3)CC2)CC1` (stereo not drawn) [Example 90, N-(Pyridin-3-ylmethyl)-6-{4-[1-(4,4,4-trifluorobutan-2-yl)piperidin-4-yl]-1,4-diazepan-1-yl}pyridine-2-carboxamide], the pKi is 7.00 to 7.70.

On to `CC(C)N1CCC(N2CCCN(c3cccc(C(=O)N[C@@H]4CCOC4)n3)CC2)CC1` [Example 19, N-[(3R)-Oxolan-3-yl]-6-{4-[1-(propan-2-yl)piperidin-4-yl]-1,4-diazepan-1-yl}pyridine-2-carboxamide], for which the pKi was 6.30 to 7.00.

On to `CC(C)CN(C)C(=O)c1cccc(N2CCCN(C3CCN(C(C)C)CC3)CC2)n1` [Example 17, N-Methyl-N-(2-methylpropyl)-6-{4-[1-(propan-2-yl)piperidin-4-yl]-1,4-diazepan-1-yl}pyridine-2-carboxamide], for which the pKi is 6.00 to 6.30.

In the case of `O=C(NCC1CC1)c1cccc(N2CCCN(C3CCN(C(CF)CF)CC3)CC2)n1` [Example 59, N-(Cyclopropylmethyl)-6-{4-[1-(1,3-difluoropropan-2-yl)piperidin-4-yl]-1,4-diazepan-1-yl}pyridine-2-carboxamide], the pKi is 6.30 to 7.00.

Turning to `CC(C)N1CCC(N2CCCN(c3cccc(C(=O)N4CCc5ccccc54)n3)CC2)CC1` [Example 21, 1-[(6-{4-[1-(Propan-2-yl)piperidin-4-yl]-1,4-diazepan-1-yl}pyridin-2-yl)carbonyl]-2,3-dihydro-1H-indole], the pKi was 6.30 to 7.00.

With `CC(C)N1CCC(N2CCCN(c3cccc(-c4ncc(C5CC5)[nH]4)n3)CC2)C(F)C1` (stereo not drawn) [Example 212, 1-[6-(4-Cyclopropyl-1H-imidazol-2-yl)pyridin-2-yl]-4-[3-fluoro-1-(propan-2-yl)piperidin-4-yl]-1,4-diazepane], the pKi was 6.30 to 7.00.

Turning to `COCCN1CCC(N2CCCN(c3cccc(C(=O)NCC4CC4)n3)CC2)CC1` [Example 71, N-(Cyclopropylmethyl)-6-{4-[1-(2-methoxyethyl)piperidin-4-yl]-1,4-diazepan-1-yl}pyridine-2-carboxamide], the pKi was 6.00 to 6.30.

For `CC(C)N1CCC(N2CCCN(c3cccc(C(=O)NC4CCOCC4)n3)CC2)CC1` [Example 2, N-(Oxan-4-yl)-6-{4-[1-(propan-2-yl)piperidin-4-yl]-1,4-diazepan-1-yl}pyridine-2-carboxamide], the pKi was 6.30 to 7.00.

Take `[2H]C1([2H])CCN(c2cccc(C(=O)Nc3ccncc3)n2)CCN1C1CCN(C(C)C)CC1` [Example 186, 6-{5,5-Dihydrogenio-4-[1-(propan-2-yl)piperidin-4-yl]-1,4-diazepan-1-yl}-N-(pyridin-4-yl)pyridine-2-carboxamide]: the pKi was greater than 7.70.

Take `CC(C)N1CCC(N2CCCN(c3cccc(C(=O)NCc4cccnc4)n3)CC2)CC1` [Example 34, 6-{4-[1-(Propan-2-yl)piperidin-4-yl]-1,4-diazepan-1-yl}-N-(pyridin-3-ylmethyl)pyridine-2-carboxamide]: the pKi was greater than 7.70.

`c1cc(NCCNC2CCCN(C3CCCC3)C2)nc(-c2ncc(C3CC3)[nH]2)c1` (stereo not drawn) [Example 230, 1-Cyclopentyl-N-(2-{[6-(5-cyclopropyl-1H-imidazol-2-yl)pyridin-2-yl]amino}ethyl)piperidin-3-amine]: the pKi was 6.30 to 7.00.

As for `CC(C)N1CCN(C)[C@H](CN2CCCN(c3cccc(C(=O)Nc4ccncc4)n3)CC2)C1` [Example 202, 6-(4-{[(2R)-1-Methyl-4-(propan-2-yl)piperazin-2-yl]methyl}-1,4-diazepan-1-yl)-N-(pyridin-4-yl)pyridine-2-carboxamide], the pKi was 6.00 to 6.30.

Turning to `Cc1cnc(-c2cccc(N3CCCN(C4CCN(C(C)C)CC4)CC3)n2)[nH]1` [Example 107, 1-[6-(4-Methyl-1H-imidazol-2-yl)pyridine-2-yl]-4-[1-(propan-2-yl)piperidin-4-yl]-1,4-diazepane], the pKi is 7.00 to 7.70.

For `CC(C)N1CCC(N2CCC(C)N(c3cccc(C(=O)NCC4CC4)n3)CC2)CC1` (stereo not drawn) [Example 174, N-(Cyclopropylmethyl)-6-{7-methyl-4-[1-(propan-2-yl)piperidin-4-yl]-1,4-diazepan-1-yl}pyridine-2-carboxamide], the pKi was 6.30 to 7.00.

`CC(C)N1CCC(N2CCCN(c3cccc(-c4noc(-c5ccccn5)n4)n3)CC2)CC1` [Example 165, 1-[1-(Propan-2-yl)piperidin-4-yl]-4-{6-[5-(pyridine-2-yl)-1,2,4-oxadiazol-3-yl]pyridine-2-yl}-1,4-diazepane tetrahydrochloride]: the pKi was 6.30 to 7.00.

Turning to `CC(C)N1CCC(N2CCCN(c3cccc(-c4noc(C(C)(C)C)n4)n3)CC2)CC1` [Example 159, 1-[6-(5-tert-Butyl-1,2,4-oxadiazol-3-yl)pyridine-2-yl]-4-[1-(propan-2-yl)piperidin-4-yl]-1,4-diazepane], the pKi was 6.00 to 6.30.

`O=C(NCc1ncco1)c1cccc(N2CCCN(C3CCN(Cc4ccccc4Cl)CC3)CC2)n1` [Example 57, 6-(4-{1-[(2-Chlorophenyl)methyl]piperidin-4-yl}-1,4-diazepan-1-yl)-N-(1,3-oxazol-2-ylmethyl)pyridine-2-carboxamide]: the pKi is 7.00 to 7.70.

For `CC(C)N1CCC(N2CCCN(c3cccc(C(=O)NCc4cscn4)n3)CC2)CC1` [Example 42, 6-{4-[1-(Propan-2-yl)piperidin-4-yl]-1,4-diazepan-1-yl}-N-(1,3-thiazol-4-ylmethyl)pyridine-2-carboxamide], the pKi is 7.00 to 7.70.

Take `CCNC(=O)c1cccc(N2CCCN(C3CCN(C(C)C)CC3)CC2)n1` [Example 4, N-Ethyl-6-{4-[1-(propan-2-yl)piperidin-4-yl]-1,4-diazepan-1-yl}pyridine-2-carboxamide]: the pKi is 6.30 to 7.00.

For the compound `N#Cc1cccc(N2CCCN(C3CCN(Cc4ccccc4Cl)CC3)CC2)n1` [Example 259, 6-(4-{1-[(2-Chlorophenyl)methyl]piperidin-4-yl}-1,4-diazepan-1-yl)pyridine-2-carbonitrile], the pKi was 6.00 to 6.30.

`CC(C)(C)c1cnc(-c2cccc(N3CCCN(C4CCN(C(C)(C)C)CC4)CC3)n2)[nH]1` [Example 117, 1-[6-(4-tert-Butyl-1H-imidazol-2-yl)pyridine-2-yl]-4-(1-tert-butylpiperidin-4-yl)-1,4-diazepane]: the pKi was 6.30 to 7.00.

For `C[C@H](c1ccccc1)N1CCC(N2CCCN(c3cccc(C(=O)NCc4cccnc4)n3)CC2)CC1` [Example 92, 6-(4-{1-[(1R)-1-Phenylethyl]piperidin-4-yl}-1,4-diazepan-1-yl)-N-(pyridine-3-ylmethyl)pyridine-2-carboxamide], the pKi was 7.00 to 7.70.

With `c1cc(NCCNC2CCN(C3CCCC3)C2)nc(-c2ncc(C3CC3)[nH]2)c1` (stereo not drawn) [Example 233, N-{2-[(1-Cyclopentylpyrrolidin-3-yl)amino]ethyl}-6-(5-cyclopropyl-1H-imidazol-2-yl)pyridin-2-amine], the pKi was 6.00 to 6.30.

On to `CC(CF)N1CCC(N2CCCN(c3cccc(C(=O)NCC4CC4)n3)CC2)CC1` (stereo not drawn) [Example 67, N-(Cyclopropylmethyl)-6-{4-[1-(1-fluoropropan-2-yl)piperidin-4-yl]-1,4-diazepan-1-yl}pyridine-2-carboxamide], for which the pKi was 6.00 to 6.30.
